≈ marks a conversion by molar mass, not a printed value.

This note sets out measurements from ChEMBL document CHEMBL1687721, “New drugs against tuberculosis: problems, progress, and evaluation of agents in clinical development” (Antimicrob Agents Chemother, 2009).

What all share (type): functional
Assay [1] relates to Mycobacterium tuberculosis. Briefly: Antimicrobial activity against compound-resistant Mycobacterium tuberculosis.
The subject of assay [2] is Mycobacterium tuberculosis. The assay can be described thus: Antimicrobial activity against rifampicin-resistant Mycobacterium tuberculosis.
Assay [3] deals with Mycobacterium tuberculosis. Briefly: Antimicrobial activity against multiple drug-resistant Mycobacterium tuberculosis.

What is called MIC is the lowest concentration that inhibits growth of the organism. High values mean weaker potency, low ones greater potency. In assay [1], `CC(C)=CCC/C(C)=C/CNCCNC1C2CC3CC(C2)CC1C3` (stereo unspecified) [SQ109] gave an MIC of 0.16 µg/mL (≈ 0.484 µM).
Compound `COc1c(N2CCNC(C)C2)c(F)cc2c(=O)c(C(=O)O)cn(C3CC3)c12` (stereo unspecified) [GATIFLOXACIN] showed an MIC in assay [2] of 0.2 µg/mL (≈ 0.533 µM).
For `O=[N+]([O-])c1cn2c(n1)OC[C@@H](OCc1ccc(OC(F)(F)F)cc1)C2` [PRETOMANID], in assay [3], the MIC was 0.015 µg/mL (≈ 0.0418 µM).
On the same count and under the same terms, in the case of `COc1nc2ccc(Br)cc2cc1[C@@H](c1ccccc1)[C@@](O)(CCN(C)C)c1cccc2ccccc12` [BEDAQUILINE] it was 0.03 µg/mL (≈ 0.054 µM).
`C[C@]1(COc2ccc(N3CCC(Oc4ccc(OC(F)(F)F)cc4)CC3)cc2)Cn2cc([N+](=O)[O-])nc2O1` displayed an MIC in assay [1] of 0.006 µg/mL (≈ 0.0112 µM).
In turn, `CO[C@H]1/C=C/O[C@@]2(C)Oc3c(C)c(O)c4c(O)c(c(/C=N/N5CCN(C6CCCC6)CC5)c(O)c4c3C2=O)NC(=O)/C(C)=C\C=C\[C@H](C)[C@H](O)[C@@H](C)[C@@H](O)[C@@H](C)[C@H](OC(C)=O)[C@@H]1C` [RIFAPENTINE] showed an MIC in assay [2] of 0.02 µg/mL (≈ 0.0228 µM).
